Drawing on patent publication US5861476A, “Peptides and compounds that bind to the IL-1 receptor” (Affymax Technologies N.V., priority 1995, dated 1999), this text covers IC50 for 35 compounds.

Like-named read-outs stand apart in the source and are kept apart here. Where a SMILES comes first, the peptide text is derived from it. Where no end group is shown, it is not given here. [ ]: non-standard residue; d: D form. Bpa = N[C@@H](Cc1ccc(C(=O)c2ccccc2)cc1)C(=O)O; 1Nal = N[C@@H](Cc1cccc2ccccc12)C(=O)O; Aze = O=C(O)[C@@H]1CCN1 Bounds are passed on as bounds.

For orientation: IC50 means the point on the concentration scale where inhibition reaches its midpoint. A low value points to greater potency in that assay.

The test deals with T1, IL-1RtI (Homo sapiens, UniProt P14778).
T1 construct: made in house; host or cells: recombinant host cells (one form soluble from baculovirus transformed host cells; another PIG-tailed and cleaved from the cell surface)
T1 sequence (P14778 18-336): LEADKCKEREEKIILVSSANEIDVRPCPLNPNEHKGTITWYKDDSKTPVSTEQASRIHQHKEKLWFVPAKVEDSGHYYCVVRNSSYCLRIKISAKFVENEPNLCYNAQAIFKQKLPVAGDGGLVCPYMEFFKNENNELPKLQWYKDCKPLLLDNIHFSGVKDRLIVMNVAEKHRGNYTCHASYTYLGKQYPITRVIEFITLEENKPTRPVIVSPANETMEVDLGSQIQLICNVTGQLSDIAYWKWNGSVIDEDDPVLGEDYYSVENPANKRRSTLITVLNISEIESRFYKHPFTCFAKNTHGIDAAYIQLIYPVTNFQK
Nature of the test: Inhibition of 125I-IL-1α binding to IL-1RtI (Example 3). Here is the method:
This example provides the results of experiments conducted to determine an approximate IC50 for certain peptides of the invention. IC50 as used herein refers to the concentration of a compound which will inhibit 50% of the binding between a receptor and its ligand, e.g. IL-1RtI and IL-1. Stock solutions of each peptide were prepared. The appropriate amount of the peptide was dissolved in DMSO, and then nineteen volumes of binding buffer (RPMI 1640, 1% BSA, 20 mM HEPES, pH 7.2-7.3, and 0.1% sodium azide) were added to yield a 1 mM peptide, 5% DMSO stock solution.
One assay utilized a truncated IL-1RtI which had been immobilized on 96-well plates with an appropriate antibody, typically a non-blocking high affinity antibody. In other assays, cells expressing "full-length" IL-1RtI were used with results that yielded IC50 values about 5 to 10 fold lower than those determined using the truncated receptor. The cells were seeded onto Falcon 3072 96-well plates at about 10^5 cells per well, and the plates were incubated overnight at 37° C. in media containing serum. The following morning, the cells were checked to ensure that the cells were confluent and adhered to the bottom of the wells.
According to either assay protocol, the plates were then washed three times with binding buffer, and then 50 μl of binding buffer and 25 μl of a peptide solution (either the stock solution or a dilution thereof; each stock was subjected to five three fold dilutions) were added to each well. Then 25 μl of binding buffer containing ^125 I-IL-1α (final concentration of 90 pM) were added to each well to begin the assay. Each assay was carried out in duplicate. The plates were then incubated for two hours at 4° C. For peptides having particularly high affinities, the assay was run in 24 well plates allowing for higher levels of ligand (possible total volume of 2.5 ml instead of 100 μl in the 96 well plate), thereby minimizing the potential for ligand depletion.
After the two hour incubation, the wells were rinsed three times with ice cold PBS (a semi-automated cell harvesting device was used to conduct the rinse). The receptors or cells were then detached from the plates by adding 100 μl of 0.1N NaOH to each well and incubating the plates at room temperature for 20 minutes. After the 20 minute incubation, about 75 μl of the suspension was counted on a gamma counter, and the IC50 for each peptide was determined using computer assistance and the results of the gamma counting.

Where [1] appears, read: inhibition of 125I-IL-1α binding to IL-1RtI, soluble peptide unless marked *.

As for `CC(=O)N[C@@H](Cc1ccccc1)C(=O)N[C@@H](CCC(=O)O)C(=O)N[C@@H](Cc1c[nH]c2ccccc12)C(=O)N[C@H](C(=O)N1CCC[C@H]1C(=O)NCC(=O)N[C@@H](Cc1ccc(O)cc1)C(=O)N[C@@H](Cc1ccc(C(=O)c2ccccc2)cc1)C(=O)N[C@@H](CCC(N)=O)C(=O)N1CC[C@H]1C(=O)N[C@@H](Cc1ccc(O)cc1)C(N)=O)[C@@H](C)O` [AcFEWTPGY--Bpa--QJY--NH2] (Ac-FEWTPGY[Bpa]Q[Aze]Y-NH2), the IC50 under setting [1] is not above 0.5 µM.

With DYVWEQPYALPL [DYVWEQ PYALPL], under setting [1], the IC50 was not above 100 µM.

RGDYWQPYSVQS [3H9, 11, RGDYWQPYSVQS] displayed a concentration for half-maximal inhibition (IC50) under setting [1] not above 100 µM.

AHLFWQPYSVQR [AHLFWQPYSVQR] yielded a half-inhibitory concentration (IC50) under setting [1] not above 100 µM.

As for SRIWCQPYALPL [SRIWCQ PYALPL], under setting [1], the half-inhibitory concentration (IC50) was not above 100 µM.

Consider `C[C@H](NC(=O)[C@H](CCC(=O)O)NC(=O)[C@@H](N)Cc1ccccc1)C(=O)N[C@H](C(=O)N1CCC[C@H]1C(=O)NCC(=O)N[C@@H](Cc1ccc(O)cc1)C(=O)N[C@@H](Cc1c[nH]c2ccccc12)C(=O)N[C@@H](CCC(N)=O)C(=O)N1CC[C@H]1C(=O)N[C@@H](Cc1ccc(O)cc1)C(N)=O)[C@@H](C)O` [FEATPGYWQJY--NH2] (H-FEATPGYWQ[Aze]Y-NH2), for which the 50% inhibitory concentration (IC50) under setting [1] was not above 100 µM.

In the case of VYWQPYSVQ [VYWQPYSVQ], the IC50 under setting [1] is not above 100 µM.

On to `C[C@@H](O)[C@H](NC(=O)[C@H](Cc1c[nH]c2ccccc12)NC(=O)[C@H](CCC(=O)O)NC(=O)[C@@H](N)Cc1ccccc1)C(=O)N1CCC[C@H]1C(=O)NCC(=O)N[C@@H](Cc1c[nH]c2ccccc12)C(=O)N[C@@H](Cc1ccc(O)cc1)C(=O)N[C@@H](CCC(N)=O)C(=O)N1CC[C@H]1C(=O)N[C@@H](Cc1ccc(O)cc1)C(N)=O` [FEWTPGWYQJY--NH2] (H-FEWTPGWYQ[Aze]Y-NH2), for which the concentration for half-maximal inhibition (IC50) under setting [1] was not above 0.5 µM.

With FEWTPGYWQPY-NH2 [FEWTPGYWQPY--NH2], the IC50 under setting [1] was not above 0.5 µM.

On to RSQYYQPYALPL [RSQYYQ PYALPL], for which, under setting [1], the IC50 was not above 100 µM.

In turn, `C[C@H](NC(=O)[C@@H]1CCCN1C(=O)[C@@H](NC(=O)[C@H](Cc1c[nH]c2ccccc12)NC(=O)[C@H](CCC(=O)O)NC(=O)[C@@H](N)Cc1ccccc1)[C@@H](C)O)C(=O)N[C@@H](Cc1ccc(O)cc1)C(=O)N[C@@H](Cc1c[nH]c2ccccc12)C(=O)N[C@@H](CCC(N)=O)C(=O)N1CC[C@H]1C(=O)N[C@@H](Cc1ccc(O)cc1)C(N)=O` [FEWTPAYWQJY--NH2] (H-FEWTPAYWQ[Aze]Y-NH2) yielded an IC50 under setting [1] not above 0.5 µM.

As to QRIWWQPYALPL [QRIWWQ PYALPL], under setting [1], the IC50 is not above 100 µM.

ASEWWQPYALPL [ASEWWQ PYALPL] came in with an IC50 under setting [1] not above 100 µM.

Turning to NSYFWQPYALPL [NSYFWQ PYALPL], the IC50 under setting [1] is not above 100 µM.

As to ESFWVQPYALPL [ESFWVQ PYALPL], the IC50 under setting [1] was more than 100 µM.

For GWYQPYALGF [GWYQPYALGF], the concentration for half-maximal inhibition (IC50) under setting [1] is not above 100 µM.

Compound `CC(C)C[C@H](NC(=O)[C@@H]1CCCN1C(=O)[C@H](CC(C)C)NC(=O)[C@H](C)NC(=O)[C@H](Cc1ccc(O)cc1)NC(=O)[C@@H]1CCN1C(=O)[C@H](CCC(N)=O)NC(=O)[C@H](Cc1c[nH]c2ccccc12)NC(=O)[C@H](Cc1ccc(O)cc1)NC(=O)[C@H](Cc1ccc(O)cc1)NC(=O)[C@H](C)NC(=O)[C@H](CC(N)=O)NC(=O)[C@H](CO)NC(=O)[C@H](CCC(=O)O)NC(=O)[C@H](CCC(=O)O)NC(=O)[C@H](Cc1c[nH]c2ccccc12)NC(=O)[C@@H](NC(=O)[C@@H](N)Cc1ccccc1)[C@@H](C)O)C(=O)O` [FTWEESNAYYWQJYALPL] (H-FTWEESNAYYWQ[Aze]YALPL-OH) showed an IC50 of less than 0.5 µM.

As for `C[C@H](NC(=O)[C@@H](N)Cc1ccccc1)C(=O)N[C@@H](Cc1c[nH]c2ccccc12)C(=O)N[C@H](C(=O)N1CCC[C@H]1C(=O)NCC(=O)N[C@@H](Cc1ccc(O)cc1)C(=O)N[C@@H](Cc1c[nH]c2ccccc12)C(=O)N[C@@H](CCC(N)=O)C(=O)N1CC[C@H]1C(=O)N[C@@H](Cc1ccc(O)cc1)C(N)=O)[C@@H](C)O` [FAWTPGYWQJY--NH2] (H-FAWTPGYWQ[Aze]Y-NH2), the IC50 under setting [1] was not above 0.5 µM.

Turning to `C[C@@H](O)[C@H](NC(=O)[C@H](Cc1c[nH]c2ccccc12)NC(=O)[C@H](CCC(=O)O)NC(=O)[C@@H](N)Cc1ccccc1)C(=O)NCC(=O)NCC(=O)N[C@@H](Cc1ccc(O)cc1)C(=O)N[C@@H](Cc1c[nH]c2ccccc12)C(=O)N[C@@H](CCC(N)=O)C(=O)N1CC[C@H]1C(=O)N[C@@H](Cc1ccc(O)cc1)C(N)=O` [FEWTGGYWQJY--NH2] (H-FEWTGGYWQ[Aze]Y-NH2), under setting [1], the IC50 is not above 100 µM.

In turn, YWYQPYALPL [YWYQPYALPL] registered an IC50 under setting [1] not above 100 µM.

The compound FYEWWQPYALPL [FYEWWQ PYALPL] registered an IC50 under setting [1] not above 100 µM.

On to TLVYWQPYSLQT [Peptide H3, TLVYWQPYSLQT], for which the IC50 under setting [1] was not above 100 µM.

Regarding `CC(C)[C@@H](NC(=O)[C@@H]1CCCN1C(=O)[C@@H](NC(=O)[C@H](Cc1c[nH]c2ccccc12)NC(=O)[C@H](CCC(=O)O)NC(=O)[C@@H](N)Cc1ccccc1)[C@@H](C)O)C(=O)N[C@@H](Cc1ccc(O)cc1)C(=O)N[C@@H](Cc1c[nH]c2ccccc12)C(=O)N[C@@H](CCC(N)=O)C(=O)N1CC[C@H]1C(=O)N[C@@H](Cc1ccc(O)cc1)C(N)=O` [FEWTPvYWQJY--NH2] (H-FEWTP[dV]YWQ[Aze]Y-NH2), the IC50 under setting [1] is not above 0.5 µM.

The compound `C[C@@H](O)[C@H](NC(=O)[C@H](Cc1c[nH]c2ccccc12)NC(=O)[C@H](CCC(=O)O)NC(=O)[C@@H](N)Cc1ccccc1)C(=O)N1CCC[C@@H]1C(=O)NCC(=O)N[C@@H](Cc1ccc(O)cc1)C(=O)N[C@@H](Cc1c[nH]c2ccccc12)C(=O)N[C@@H](CCC(N)=O)C(=O)N1CC[C@H]1C(=O)N[C@@H](Cc1ccc(O)cc1)C(N)=O` [FEWTpGYWQJY--NH2] (H-FEWT[dP]GYWQ[Aze]Y-NH2) gave a half-inhibitory concentration (IC50) under setting [1] not above 0.5 µM.

Consider TLIYWQPYSVQI [TLIYWQPYSVQI], for which the IC50 under setting [1] was not above 100 µM.

In the case of `CC(=O)N[C@@H](Cc1ccccc1)C(=O)N[C@@H](CCC(=O)O)C(=O)N[C@@H](Cc1ccc(C(=O)c2ccccc2)cc1)C(=O)N[C@H](C(=O)N1CCC[C@H]1C(=O)NCC(=O)N[C@@H](Cc1ccc(O)cc1)C(=O)N[C@@H](Cc1ccc(O)cc1)C(=O)N[C@@H](CCC(N)=O)C(=O)N1CC[C@H]1C(=O)N[C@@H](Cc1ccc(O)cc1)C(N)=O)[C@@H](C)O` [AcFE--Bpa--TPGYYQJY--NH2] (Ac-FE[Bpa]TPGYYQ[Aze]Y-NH2), under setting [1], the half-maximal inhibitory concentration (IC50) is not above 100 µM.

Take EWYQPYALGWAR [EWYQPYALGWAR]: the half-inhibitory concentration (IC50) under setting [1] is not above 100 µM.

For AWVQPYATPLDE [AWVQPYATPLDE], the 50% inhibitory concentration (IC50) under setting [1] is not above 100 µM.

In turn, LFEQPYAKALGL [LFEQPYAKALGL] yielded a half-maximal inhibitory concentration (IC50) under setting [1] not above 100 µM.

Turning to `C[C@@H](O)[C@H](NC(=O)[C@H](Cc1c[nH]c2ccccc12)NC(=O)[C@H](CCC(=O)O)NC(=O)[C@@H](N)Cc1ccccc1)C(=O)N1CCC[C@H]1C(=O)N[C@@H](CC(N)=O)C(=O)N[C@@H](Cc1ccc(O)cc1)C(=O)N[C@@H](Cc1c[nH]c2ccccc12)C(=O)N[C@@H](CCC(N)=O)C(=O)N1CC[C@H]1C(=O)N[C@@H](Cc1ccc(O)cc1)C(N)=O` [FEWTPNYWQJY--NH2] (H-FEWTPNYWQ[Aze]Y-NH2), under setting [1], the IC50 is not above 0.5 µM.

In turn, `CC(C)[C@H](NC(=O)[C@@H](NC(=O)[C@H](Cc1c[nH]c2ccccc12)NC(=O)[C@H](CCC(=O)O)NC(=O)[C@@H](N)Cc1ccccc1)[C@@H](C)O)C(=O)N1CCC[C@H]1C(=O)N[C@@H](Cc1ccc(O)cc1)C(=O)N[C@@H](Cc1c[nH]c2ccccc12)C(=O)N[C@@H](CCC(N)=O)C(=O)N1CC[C@H]1C(=O)N[C@@H](Cc1ccc(O)cc1)C(N)=O` [FEWTVPYWQJY--NH2] (H-FEWTVPYWQ[Aze]Y-NH2) had a half-maximal inhibitory concentration (IC50) under setting [1] not above 100 µM.

Regarding GWTQPYSQQGEV [GWTQPYSQQGEV], under setting [1], the IC50 was not above 100 µM.

As for WETWYQPYALPL [WETWYQ PYALPL], under setting [1], the IC50 was not above 100 µM.

For the compound `C[C@@H](O)[C@H](NC(=O)[C@H](Cc1c[nH]c2ccccc12)NC(=O)[C@H](CCC(=O)O)NC(=O)[C@@H](N)Cc1cccc2ccccc12)C(=O)N1CCC[C@H]1C(=O)NCC(=O)N[C@@H](Cc1ccc(O)cc1)C(=O)N[C@@H](Cc1ccc(O)cc1)C(=O)N[C@@H](CCC(N)=O)C(=O)N1CC[C@H]1C(=O)N[C@@H](Cc1ccc(O)cc1)C(N)=O` [1Nap--EWTPGYYQJY--NH2] (H-[1Nal]EWTPGYYQ[Aze]Y-NH2), under setting [1], the IC50 was not above 0.5 µM.

The compound YYQPYALPL [YYQPYALPL] displayed an IC50 under setting [1] not above 100 µM.
